Source: patent EP1708692B1, “DICHLOROACETATE IN COMBINATION WITH AN INOTROPE FOR CARDIOPROTECTION” (The Governors of the University of Alberta, priority 2004, dated 2005)
Where “and” joins values, the source holds several entries; their conditions need not be identical. Equal entries are not always repeated. Where two headings read alike, the source gives them in different places.

Key:
[1] = tested on: pediatric patients requiring heart surgery to correct complex congenital heart lesions; assay: Clinical outcome after DCA bolus and 24 hour infusion: Inotrope Score, ICU time, ventilator time (Example C); type: in vivo; set-up: reduction of Inotrope Scores: concentration or dose not given beside the values; conditions: compared to placebo; for average decrease in Inotrope Score per patient: over the 24 hour period
Protocol: This study was a randomized, placebo-controlled, double blinded, single surgeon, study of the use of DCA in 51 high-risk pediatric patients requiring heart surgery to correct complex congenital heart lesions.
In this trial, 53 infants were recruited to participate in a study, of which 51 patients met inclusion criteria after parental consent. Two dosing groups resulted from the study team changing the dosing protocol after the data from the initial 10 patients were analyzed. The data from patients number 1 to number 10 was analyzed for DCA therapeutic blood levels and therapeutic effect. A recommendation by the research team was made to increase the bolus dose of DCA and to decrease the infusion dose of DCA to maintain a DCA dose range of 1mM for 24 hours. The intent was to administer the new protocol at patient number 20. The 1997 Epicore power calculations were based on separation of the study groups patients into group A of n = 20 patients and Group B of n = 31 patients
(§1) DCA (50mg/kg) or placebo was injected into the aortic root immediately prior to removing aortic cross clamp. The coded solutions were made such that a dose of 1 ml/kg provided either a DCA therapeutic level of 1mM plasma concentration of DCA, or a placebo solution. Immediately thereafter, an infusion of DCA at 25mg/kg/hr or placebo in the same volume was initiated and run for 24 hours. Based on the pharmacokinetics of DCA, this was expected to maintain plasma levels of DCA in the therapeutic range of (0.2-1mM). However, the plasma concentrations of DCA were below 1mM after the first hour interval, and that the 24 hour plasma concentrations were elevated above 1mM DCA levels at the 24 hour interval, a decision was made to modify the dosing protocol. This change in dosing protocol was approved by the Ethics Committee, but not implemented until patient number 24. All blood samples were analyzed by HPLC for DCA concentration.
(§2) DCA (100mg/kg) or placebo was injected into the aortic root immediately prior to removing aortic cross clamp. The coded solutions were made such that a dose of 1 ml/kg provided either a DCA therapeutic level of 1mM plasma concentration of DCA, or a placebo solution. Immediately thereafter, an infusion of DCA at 12.5mg/kg/hr or placebo in the same volume was initiated and run for 24 hours. Based on the pharmacokinetics of DCA, this was expected to maintain plasma levels of DCA in the therapeutic range of (0.2-1mM). All blood samples were analyzed by HPLC for DCA concentration.
(§3) In both the operating room at the end of cardiopulmonary bypass and in the intensive care unit, parenteral drugs were scored on an hourly basis with 1 point allotted for each level for each bolus or infusion given within the previous hour within the first 24 hours post-operatively. Thus at the end of 24 hours, high scores indicated poorer cardiac function.

[2] = Plasma DCA levels by HPLC after bolus, adult CABG patients (Example A); type: in vivo; conditions: human, 50 mg/kg, following infusion of 50mg/kg Na+ Dichloroacetate via cardiopulmonary bypass pump, 1 hour following administration, n=8
Protocol: (§4) DCA or saline was administered to 18 patients undergoing elective cardiac bypass grafting surgery (CABG) in a double blinded randomized manner DCA (50mg/kg in 100 ml of saline) or placebo was injected into the aortic root, immediately prior to removing aortic cross clamp. Based on the pharmacokinetics of DCA, we anticipated that this would produce a plasma concentration of approximately 1 mM. The study consisted of 8 DCA-treated patients and 10 placebo-treated patients.
(§5) The intervention involved DCA (50mg/kg) or placebo injected into the aortic root immediately prior to removing aortic cross clamp. The coded solution was made such that a dose of lml/kg provides the appropriate dose of DCA or placebo. Based on the pharmacokinetics of DCA, this was expected to result in a plasma level of DCA in the therapeutic range of (1mM). All blood samples were analyzed by HPLC for DCA concentration.
Plasma samples were processed for DCA levels using a high performance liquid chromatography (HPLC) technique that separated the DCA from other plasma constituents. In brief, 20 µl of plasma sample was injected into a Beckman Gold HPLC containing a IonoBpher 5A column (250x4.6mm LxID) and a AX Guard Column. […] The flow rate of the HPLC was set at 3.0 ml/min and the DCA eluted from the column was detected by comparing DCA elution times to acetate, monochloroacetate, and trichloroacetate standards. […]

[3] = tested on: patients undergoing elective cardiac bypass grafting surgery (CABG); assay: Mortality in adult CABG study (Example A); type: in vivo, human; conditions: 50mg/kg bolus, 8 DCA-treated adult patients
Protocol: as §4, §5

[4] = Plasma DCA levels by HPLC, bolus and infusion protocol (Example C); type: in vivo, pediatric patients; conditions: human
Protocol: as §1, §2
Arterial blood samples were obtained from patients at the following times: • a. Immediately after the insertion of arterial line in operating room (i.e., at beginning of surgery). • b. Thirty minutes after the bolus of DCA has been given, whether or not cardiopulmonary bypass has been discontinued. • c. One hour after discontinuing cardiopulmonary bypass. • d. Six hours after discontinuing cardiopulmonary bypass • e. Twelve hours after discontinuing cardiopulmonary bypass. • f. Twenty four hours after discontinuing cardiopulmonary bypass. At the end of 24 hours, the DCA or placebo infusion was discontinued.
Blood samples were collected from indwelling arterial lines into citrate-containing tubes (0.5 ml blood samples). The samples were spun in the microfuge, the plasma separated, and frozen immediately for later analysis. All plasma samples were stored at -80 degrees centigrade, until further processing. Plasma glucose and lactate were determined using a Sigma glucose kit and a spectrophotometric assay involving lactate dehydrogenase respectively. Plasma fatty acid levels were measured using an ELISA system and WAKO free fatty acid kit.

[5] = tested on: pediatric patients requiring heart surgery to connect complex congenital heart lesions; assay: Clinical outcome after single DCA bolus: Inotrope Score, ICU time, ventilator time, echocardiography (Example B); type: in vivo; conditions: 50mg/kg bolus, placebo patients 26%
Protocol: This study was a randomized, placebo-controlled, double blinded, single surgeon, study of the use of DCA in 40 high-risk pediatric patients requiring heart surgery to connect complex congenital heart lesions.
In this trial, 40 children were recruited to participate in a single surgeon study, of which 18 received DCA and 22 received placebo. The 1995 power calculations were based on separation of the CPB-1 trial of n = 40 patients.
as §5, with “in” for “in a”, “levels” for “level”
as §3, with “hour for” for “hour within”, “post-operatively. Thus,” for “post-operatively. Thus”, “24 hours” for “24 hours,”

patients = assay: Observed side effects of DCA in patients
[6] = Group A, 50mg/kg bolus and 25mg/kg/hour infusion
[7] = Group B, 100mg/kg bolus and 12.5mg/kg/hour infusion

For O=C(O)C(Cl)Cl [DCA, dichloroacetate], the “reduction of time in ICU” value ([1]; Group A, 50mg/kg bolus and 25mg/kg/hour infusion, 23 patients) was 60 h, the “decrease of time in ICU” value [1, 6] was 41% and the “decrease of ventilator time” value [1, 6] was 47%. For the same molecule, the “reduction of ventilator time” value [1, 6] was 46 h, the “reduction of Inotrope Scores” value ([1]; Group A, by 1 hour) was 50% and the “reduction of Inotrope Scores” value ([1]; Group A, by 12 hours) was 45%. The “reduction of Inotrope Scores” value ([1]; Group A, by 24 hours) was 38%, the “average decrease in Inotrope Score per patient” value ([1]; Group A) was 44% and the “reduction of time in ICU” value ([1]; Group B, 100mg/kg bolus and 12.5mg/kg/hour infusion, 24 patients) was 50 h. For the same molecule, the “decrease of time in ICU” value [1, 7] was 40%, the “decrease of ventilator time” value [1, 7] was 23% and the “reduction of ventilator time” value [1, 7] was 18 h and 19 h. The “reduction of Inotrope Scores” value ([1]; Group B, by 1 hour) was 57%, the “reduction of Inotrope Scores” value ([1]; Group B, by 12 hours) was 49% and the “reduction of Inotrope Scores” value ([1]; Group B, by 24 hours) was 45%. The “average decrease in Inotrope Score per patient” value ([1]; Group B) was 51%, the concentration at 1 h [2] was about 1000 µM and the mortalities [3] was “no mortalities”. For the same molecule, the concentration at 24 h ([4]; 50 mg/kg, Example C, 24 hour interval (Group A), read-out: optimum mean level of DCA in plasma) was 2.29 mM, the concentration at 24 h ([4]; 50 mg/kg, Group A protocol (50mg/kg bolus, 25mg/kg/hr infusion), 24 hour interval, initial patients, read-out: plasma concentrations of DCA) was over 1 mM and the concentration at 1 h ([4]; 50 mg/kg, Group A protocol (50mg/kg bolus, 25mg/kg/hr infusion), after the first hour interval, initial patients, read-out: plasma concentrations of DCA) was under 1 mM. The concentration at 12 h ([4]; 50 mg/kg, Group A, 50mg/kg bolus and 25mg/kg/hr infusion, n=9, read-out: Average DCA Plasma Levels, mM at 12 hr) was 1.77 mM, the concentration at 6 h ([4]; 50 mg/kg, Group A, 50mg/kg bolus and 25mg/kg/hr infusion, n=10, read-out: Average DCA Plasma Levels, mM at 6 hr) was 1.13 mM and the concentration at 1 h ([4]; 50 mg/kg, Group A, 50mg/kg bolus and 25mg/kg/hr infusion, n=11, read-out: Average DCA Plasma Levels, mM at 1 hr) was 0.46 mM. For the same molecule, the concentration at 24 h ([4]; 50 mg/kg, Group A, 50mg/kg bolus and 25mg/kg/hr infusion, n=11, read-out: Average DCA Plasma Levels, mM at 24 hr) was 2.72 mM, the concentration at 6 h ([4]; 50 mg/kg, Group A, 50mg/kg bolus and 25mg/kg/hr infusion, patients with greatest degree of clinical benefits, m=5, read-out: Average Optimum Mean of DCA Plasma Levels, mM at 6 hr) was 0.916 mM and the concentration at 12 h ([4]; 50 mg/kg, Group A, 50mg/kg bolus and 25mg/kg/hr infusion, patients with greatest degree of clinical benefits, m=5, read-out: Average Optimum Mean of DCA Plasma Levels, mM at 12 hr) was 1.52 mM. The concentration at 24 h ([4]; 50 mg/kg, Group A, 50mg/kg bolus and 25mg/kg/hr infusion, patients with greatest degree of clinical benefits, m=6, read-out: Average Optimum Mean of DCA Plasma Levels, mM at 24 hr) was 2.29 mM, the concentration at 6 h ([4]; 100 mg/kg, Example C, 1 to 6 hour period (Group B), read-out: optimum mean level of DCA in plasma) was 1 mM and the concentration at 6 h ([4]; 100 mg/kg, Group B, 100mg/kg bolus and 12.5 mg/kg/hr infusion, n not given, read-out: Average Optimum Mean of DCA Plasma Levels, mM at 6 hr) was 1 mM. For the same molecule, the concentration at 12 h ([4]; 100 mg/kg, Group B, 100mg/kg bolus and 12.5 mg/kg/hr infusion, n not given, read-out: Average Optimum Mean of DCA Plasma Levels, mM at 12 hr) was 1 mM, the concentration at 24 h ([4]; 100 mg/kg, Group B, 100mg/kg bolus and 12.5 mg/kg/hr infusion, n not given, read-out: Average Optimum Mean of DCA Plasma Levels, mM at 24 hr) was 1 mM and the concentration at 24 h ([4]; 100 mg/kg, Group B, 100mg/kg bolus and 12.5 mg/kg/hr infusion, n=10, read-out: Average DCA Plasma Levels, mM at 24 hr) was 2.23 mM. The concentration at 1 h ([4]; 100 mg/kg, Group B, 100mg/kg bolus and 12.5 mg/kg/hr infusion, n=11, read-out: Average DCA Plasma Levels, mM at 1 hr) was 1.13 mM, the concentration at 6 h ([4]; 100 mg/kg, Group B, 100mg/kg bolus and 12.5 mg/kg/hr infusion, n=11, read-out: Average DCA Plasma Levels, mM at 6 hr) was 0.894 mM and the concentration at 12 h ([4]; 100 mg/kg, Group B, 100mg/kg bolus and 12.5 mg/kg/hr infusion, n=11, read-out: Average DCA Plasma Levels, mM at 12 hr) was 1.43 mM. For the same molecule, the concentration at 6 h ([4]; Example C, 1 to 6 hour interval, read-out: DCA plasma level range) was 0.229 to 2.22 mM, the concentration at 12 h ([4]; Example C, 12 hour interval, read-out: DCA plasma level range) was 0.38 to 3.07 mM and the concentration at 12 h ([4]; Example C, 12 hour interval, read-out: optimum mean level of DCA in plasma) was 1.52 mM. The concentration at 24 h ([4]; Example C, 24 hour interval, read-out: DCA plasma level range) was 1.74 to 3.9 mM, the concentration at 1 h ([4]; Group A, 50mg/kg bolus and 25mg/kg/hr infusion, patients with greatest degree of clinical benefits, n not given, read-out: Average Optimum Mean of DCA Plasma Levels, mM at 1 hr) was 1 mM and the concentration at 1 h ([4]; Group B, 100mg/kg bolus and 12.5 mg/kg/hr infusion, patients with greatest degree of clinical benefits, n=7, read-out: Average Optimum Mean of DCA Plasma Levels, mM at 1 hr) was 1.01 mM. For the same molecule, the “shortening fraction (echocardiography)” value [5] was 35%, the side-effects (patients; general observation in patients) was “not have significant side-effects, although some patients experience mild drowsiness” and the “adverse effects of DCA” value (patients; previous (pilot) studies) was “no adverse effects”.
